biological target: LMPTP-A (Low Molecular Weight Protein Tyrosine Phosphatase-A) enzyme (Homo sapiens (Human), UniProt P24666); assay: LMPTP primary screening / LMPTP (OMFP) enzyme inhibition assay, fluorescence intensity; format: biochemical; conditions: LMPTP-A, OMFP substrate, method of Example 2; read-out: IC50
In short: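 0.625 nM LMPTP-A with 400 μM OMFP substrate in 50 mM Bis-Tris pH 6.0, 1 mM DTT, 0.01% Triton X-100, […]. Compounds at 20 μM final. Incubated 50 min at room temperature in the dark; fluorescence intensity read.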

Chain of LMPTP-A (Low Molecular Weight Protein Tyrosine Phosphatase-A) enzyme (P24666 whole entry): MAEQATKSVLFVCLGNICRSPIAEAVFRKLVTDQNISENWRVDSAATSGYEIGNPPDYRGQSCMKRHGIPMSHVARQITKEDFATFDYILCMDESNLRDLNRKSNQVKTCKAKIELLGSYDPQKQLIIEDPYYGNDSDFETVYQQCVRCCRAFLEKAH

IC50 | Compound
> 5000 nM | Cn1cc(-c2cc(NCCCN3CCCCC3)c3ccccc3n2)cn1 [Compound G18, [2-(1-Methyl-1H-pyrazol-4-yl)-quinolin-4-yl]-(3-piperidin-1-yl-propyl)-amine]
> 5000 nM | COc1ccc(-c2cc(NCCCN3CCCCC3)c3cc(Cl)ccc3n2)cc1 [Compound G27, [6-Chloro-2-(4-methoxy-phenyl)-quinolin-4-yl]-(3-piperidin-1-yl-propyl)-amine]
801 to 5000 nM | COc1ccc(-c2cc(NCc3ccccc3)c3ccccc3n2)cc1 [Compound G75, [2-(4-methoxyphenyl)(4-quinolyl)]benzylamine]
> 5000 nM | NC(=O)c1ccc(-c2cc(Nc3ccc(CN4CCCCC4)cc3)c3ccccc3n2)cc1 [Compound I6, 4-(4-{[4-(piperidylmethyl)phenyl]amino}-2-quinolyl)benzamide]
801 to 5000 nM | Fc1cccc(-c2cc(NCCCN3CCCCC3)c3ccccc3n2)c1C(F)(F)F [Compound I223]
801 to 5000 nM | Fc1ccc(-c2cc(NCCCN3CCCCC3)c3ccccc3n2)c(F)n1 [Compound I90]
> 5000 nM | CCN(CC)S(=O)(=O)c1ccccc1-c1cc(NCCCN2CCCCC2)c2ccccc2n1 [Compound I240]
801 to 5000 nM | CNC(=O)c1ccc(-c2cc(NCCCN3CCCCC3)c3ccccc3n2)cc1 [Compound I73]
801 to 5000 nM | CCOc1ncccc1-c1cc(NCCCN2CCCCC2)c2ccccc2n1 [Compound I96]
801 to 5000 nM | CN(C)c1cccc(Nc2cc(-c3cccc(Cl)c3)nc3ccccc23)c1 [Compound I14, (3-{[2-(3-chlorophenyl)(4-quinolyl)]amino}phenyl)dimethylamine]
801 to 5000 nM | COc1ccc(-c2cc(Nc3cccc(C)n3)c3ccccc3n2)cc1 [Compound G67, [2-(4-methoxyphenyl)(4-quinolyl)](6-methyl(2-pyridyl))amine]
801 to 5000 nM | O=C(O)c1cccc(-c2cc(NCCCN3CCCCC3)c3ccccc3n2)c1 [Compound I128]
801 to 5000 nM | Fc1ccccc1-c1cc(NCCCN2CCCCC2)c2ccccc2n1 [Compound G6, [2-(2-Fluoro-phenyl)-quinolin-4-yl]-(3-piperidin-1-yl-propyl)-amine]
> 5000 nM | CN(C)c1cc(-c2ccoc2)nc2ccccc12 [Compound G15, (2-Furan-3-yl-quinolin-4-yl)-dimethyl-amine]
200 to 800 nM | COc1ccc(-c2cc(Nc3cccc(CN4CCOCC4)c3)c3ccccc3n2)cc1 [Compound G55, [2-(4-methoxyphenyl)(4-quinolyl)][3-(morpholin-4-ylmethyl)phenyl]amine]
801 to 5000 nM | COc1ccc(-c2cc(NCCCc3ccncc3)c3ccccc3n2)cc1 [Compound I200, [2-(4-methoxyphenyl)(4-quinolyl)](3-(4-pyridyl)propyl)amine]
> 5000 nM | CCN1CCN(Cc2ccc(Nc3cc(-c4ccc(C(N)=O)cc4)nc4ccccc34)cc2)CC1 [Compound I215, 4-[4-({4-[(4-ethylpiperazinyl)methyl]phenyl}amino)-2-quinolyl]benzamide]
200 to 800 nM | O=S(=O)(c1ccc(-c2cc(NCCCN3CCCCC3)c3ccccc3n2)cc1)N1CCSCC1 [Compound I235, 4-[(4-{4-[(3-piperidylpropyl)amino]-2-quinolyl}phenyl)sulfonyl]-1,4-thiazaperhydroine]
200 to 800 nM | COc1ccc(-c2cc(Nc3ccc(C#N)cc3)c3ccccc3n2)cc1 [Compound G47, 4-{[2-(4-methoxyphenyl)-4-quinolyl]amino}benzenecarbonitrile]
200 to 800 nM | NC(=O)c1ccc(-c2cc(NCCCN3CCCCC3)c3ccccc3n2)cc1Cl [Compound I82]
801 to 5000 nM | Fc1cccnc1-c1cc(NCCCN2CCCCC2)c2ccccc2n1 [Compound I94]
801 to 5000 nM | COc1ccc(-c2cc(NCc3ccc(C(F)(F)F)cc3)c3ccccc3n2)cc1 [Compound G81, [2-(4-methoxyphenyl)(4-quinolyl)]{[4-(trifluoromethyl)phenyl]methyl}amine]
801 to 5000 nM | COc1ccc(-c2cc(Nc3ccc(CN4CCCCC4)cc3)c3ccccc3n2)cc1 [Compound I23, [2-(4-methoxyphenyl)(4-quinolyl)][4-(piperidylmethyl)phenyl]amine]
200 to 800 nM | O=C(NCCN1CCCCC1)c1ccc(-c2cc(NCCCN3CCCCC3)c3ccccc3n2)cc1 [Compound I191]
801 to 5000 nM | Cc1cc(Cl)ccc1-c1cc(NCCCN2CCCCC2)c2ccccc2n1 [Compound I134]
> 5000 nM | C[N+]1(C)CCC(Cc2ccccc2Nc2cc(-c3cc(C(F)(F)F)cc(C(F)(F)F)c3)nc3ccccc23)CC1 [Compound I48, {2-[(1,1-dimethyl(4-piperidyl))methyl]phenyl} {2-[3,5-bis(trifluoromethyl)phenyl](4-quinolyl)}amine]

IC50 | Compound
801 to 5000 nM | Clc1cccc(-c2cc(Nc3cccc(CN4CCCC4)c3)c3ccccc3n2)c1 [Compound I12, [2-(3-chlorophenyl)(4-quinolyl)][3-(pyrrolidinylmethyl)phenyl]amine]
801 to 5000 nM | COc1ccc(-c2cc(NCc3ccc(CN4CCOCC4)cc3)c3ccccc3n2)cc1 [Compound I211, [2-(4-methoxyphenyl)(4-quinolyl)]{[4-(morpholin-4-ylmethyl)phenyl]methyl}amine]
> 5000 nM | FC(F)(F)c1cc(-c2cc(Nc3ccccc3CC3CCNCC3)c3ccccc3n2)cc(C(F)(F)F)c1 [Compound I49, {2-[3,5-bis(trifluoromethyl)phenyl](4-quinolyl)}[2-(4-piperidylmethyl)phenyl]amine]
> 5000 nM | COc1ccc(-c2cc(Nc3ccccc3C(F)(F)F)c3ccccc3n2)cc1 [Compound G36, [2-(4-Methoxy-phenyl)-quinolin-4-yl]-(2-trifluoromethyl-phenyl)-amine]
200 to 800 nM | NC(=O)c1ccc(-c2cc(NCCCN3CCCCC3)c3ccccc3n2)cc1F [Compound I81]
> 5000 nM | COc1ccc(-c2cc(NCCCN3CCCCC3)c3ccc(OC)cc3n2)cc1 [Compound G26, [7-Methoxy-2-(4-methoxy-phenyl)-quinolin-4-yl]-(3-piperidin-1-yl-propyl)-amine]
801 to 5000 nM | Fc1ccc(-c2cc(NCCCN3CCCCC3)c3ccccc3n2)cc1 [Compound G8, [2-(4-Fluoro-phenyl)-quinolin-4-yl]-(3-piperidin-1-yl-propyl)-amine]
200 to 800 nM | FC(F)(F)c1ccc(-c2cc(NCCCN3CCCCC3)c3ccccc3n2)c(C(F)(F)F)c1 [Compound I149]
801 to 5000 nM | COc1ccc(-c2cc(Nc3ccncn3)c3ccccc3n2)cc1 [Compound G70, [2-(4-methoxyphenyl)(4-quinolyl)]pyrimidin-4-ylamine]
801 to 5000 nM | c1ccc2c(NCCCC3CCCNC3)cc(-c3ccoc3)nc2c1 (stereo not shown) [Compound I177, (2-(3-furyl)(4-quinolyl))(3-piperidylpropyl)amine]
> 5000 nM | Clc1cccc(Nc2cc(NCCCN3CCCCC3)c3ccccc3n2)c1 [Compound I76]
801 to 5000 nM | Nc1cc(C(=O)N2CCOCC2)cc(-c2cc(NCCCN3CCCCC3)c3ccccc3n2)c1 [Compound I80]
200 to 800 nM | CCN(CC)C(=O)c1ccc(-c2cc(NCCCN3CCCCC3)c3ccccc3n2)cc1 [Compound I1, N,N-diethyl-4-(4-((3-(piperidin-1-yl)propyl)amino)quinolin-2-yl)benzamide]
801 to 5000 nM | COC(=O)CNC(=O)c1ccc(-c2cc(NCCCN3CCCCC3)c3ccccc3n2)cc1 [Compound I69]
801 to 5000 nM | N-ethyl-N-methyl(4-{4-[(3-piperidylpropyl)amino](2-quinolyl)}phenyl)carboxamide [Compound I60]
> 5000 nM | c1ccc2c(NCCCN3CCCCC3)cc(-c3ccsc3)nc2c1 [Compound I136]
801 to 5000 nM | c1ccc2c(NCCCN3CCCCC3)cc(-c3ccc4c(c3)OCCO4)nc2c1 [Compound I125]
> 5000 nM | c1ccc(CSc2cccc(-c3cc(NCCCN4CCCCC4)c4ccccc4n3)c2)cc1 [Compound I245]
801 to 5000 nM | COc1ccc(CCNc2cc(-c3ccc(OC)cc3)nc3ccccc23)cc1 [Compound G85, [2-(4-methoxyphenyl)(4-quinolyl)][2-(4-methoxyphenyl)ethyl]amine]
801 to 5000 nM | CC(=O)OCc1cccc(-c2cc(NCCCN3CCCCC3)c3ccccc3n2)c1 [Compound I79, 3-{4-[(3-piperidylpropyl)amino]-2-quinolyl}phenyl)methyl acetate]
801 to 5000 nM | COc1ccc(-c2cc(Nc3ccc(Br)cc3)c3ccccc3n2)cc1 [Compound G41, (4-bromophenyl)[2-(4-methoxyphenyl)(4-quinolyl)]amine]
801 to 5000 nM | COc1ccc(-c2cc(Nc3ccc(CN4CCOCC4)cc3)c3ccccc3n2)cc1 [Compound G52, [2-(4-methoxyphenyl)(4-quinolyl)][4-(morpholin-4-ylmethyl)phenyl]amine]
801 to 5000 nM | CCN1CCC(Cc2ccc(Nc3cc(-c4ccc(OC)cc4)nc4ccccc34)cc2)CC1 [Compound I33, {4-[(1-ethyl(4-piperidyl))methyl]phenyl}[2-(4-methoxyphenyl)(4-quinolyl)]amine]
801 to 5000 nM | CCCCOc1ncccc1-c1cc(NCCCN2CCCCC2)c2ccccc2n1 [Compound I93]
> 5000 nM | NC(=O)c1ccc(-c2cc(Nc3cccc(CN4CCCC4)c3)c3ccccc3n2)cc1 [Compound I5, 4-(4-{[3-(pyrrolidinylmethyl)phenyl]amino}-2-quinolyl)benzamide]

Compound | IC50
C[Si](C)(C)c1cccc(-c2cc(NCCCN3CCCCC3)c3ccccc3n2)c1 [Compound I145] | 801 to 5000 nM
COc1ccc(-c2cc(NCc3ccc(Cl)cc3)c3ccccc3n2)cc1 [Compound G74, [(4-chlorophenyl)methyl][2-(4-methoxyphenyl)(4-quinolyl)]amine] | 801 to 5000 nM
CC(C)(C)OC(=O)n1c(-c2cc(NCCCN3CCCCC3)c3ccccc3n2)cc2ccccc21 [Compound I98, tert-butyl 2-{4-[(3-piperidylpropyl)amino]-2-quinolyl}indolecarboxylate] | > 5000 nM

same assay, conditions: SAR discussion

LMPTP (OMFP) potency in words | Compound
inactive | CSCCCN1CCCCC1 [Entry 64]
